# Like-named read-outs stand apart in the source and are kept apart here.
# Key:
# [1] = model from 10 VLBW neonates, 10 mg/kg every 8 h, ref Kato et al. [16]; cited from earlier work
# Text: The most commonly used tertiary dosing references present vancomycin dosing recommendations for neonates considering only one or two of these variables. For example, Micromedex NeoFax recommends dosing based on a combination of PMA and PNA, pediatric and neonatal Lexicomp recommends two different dosing strategies, one based on a combination of PMA and PNA and the other based on a combination of GA and Scr (Table 1). As a result, the daily doses can differ widely by up to 50% between these studies. Studies have reported that the probability of achieving vancomycin therapeutic targets in neonat ... || To date, only two studies with very small sample size have evaluated the optimal vancomycin dosing in VLBW neonates ([16], [17]). Kato et al. ([16]) recommended a vancomycin dose of 10 mg/kg every 8 h as the initial dosage regimen for vancomycin in VLBW neonates. This model predicted vancomycin therapeutic target achievement in 86.7% of neonates. However, they developed their model based on data from only 10 VLBW neonates, and the simulations were not divided into categories according to Scr and PMA. The major difference between our findings and the Kato et al. model is that for most groups, e ...
# [2] = Vancomycin population pharmacokinetic model (one-compartment, Monolix) from serum concentrations in VLBW neonates
# Procedure: Data were retrieved for VLBW neonates (0–30 days old) who were admitted to the NICU and received vancomycin for proven or suspected MRSA or MRCONS infections. Patients were included if they received vancomycin for more than 48 h and had at least one vancomycin serum trough concentration measurement in a steady state. The collected data included PNA, PMA, weight, Scr, vancomycin dose, frequency and concentrations. […] Subsequent dose adjustments were guided by the vancomycin trough concentrations. In King Saud University Medical City, both vancomycin peak and trough concentrations were obtained for therapeutic drug monitoring. In all other hospitals, the practice was to collect trough concentrations only. Peak samples were collected 1 h after the end of infusions, and trough concentrations were collected 30 min before the next dose in a steady state. Exclusion criteria were: renal failure, receiving hemodialysis, missing dosing information and those sampled before the steady state were excluded.
# One hospital used a chemiluminescent microparticle immunoassay with an Architect i4000SR immunoassay analyzer (Abbott), two hospitals used the kinetic interaction of microparticles in solution (KIMS) with a Cobas c system (Roche/Hitachi), and three hospitals used the homogeneous particle-enhanced turbidimetric inhibition immunoassay (PETINIA) with an Alinity c analyzer (Abbott). The assay range for the Architect immunoassay is from 0.5 to 83 µg/ml, the range for the KIMS assay is 4–80 µg/ml, and the range for the PETINIA is 1.4–100 µg/ml. For the Scr assays, four centers used the Jaffe method, and two centers used the enzymatic method.
# We split the data randomly into the training (70%) and validation (30%) data sets. […] Pharmacokinetic modeling was performed using the Monolix software (2020R1) with the stochastic approximation expectation maximization algorithm.
# First, we developed a structural model for vancomycin. This included testing one- and two-compartment models with linear and nonlinear elimination. For the between-subject variability in pharmacokinetic parameters, we used the following lognormal distribution: pi=p.exp⁡(ηi), where pi is the individual pharmacokinetic estimate for the i^th individual, p is the median value of the pharmacokinetic parameter, and ηi is the standard deviation for the i^th individual with a mean of 0 and variance ω^2. For residual unexplained variability, we tested different statistical models, including the constant, proportional, and combined error models. As different assays were used for vancomycin, we tested having different residual variability models accordingly.
# After we developed the base model, we evaluated the effect of covariates on pharmacokinetic parameters. […]
# [3] = cited from earlier work; for risk of nephrotoxicity: adults, ref [30]
compound,measurement,setting,value
CN[C@H](CC(C)C)C(=O)N[C@H]1C(=O)N[C@@H](CC(N)=O)C(=O)N[C@H]2C(=O)N[C@H]3C(=O)N[C@H](C(=O)N[C@H](C(=O)O)c4cc(O)cc(O)c4-c4cc3ccc4O)[C@H](O)c3ccc(c(Cl)c3)Oc3cc2cc(c3O[C@@H]2O[C@H](CO)[C@@H](O)[C@H](O)[C@H]2O[C@H]2C[C@](C)(N)[C@H](O)[C@H](C)O2)Oc2ccc(cc2Cl)[C@H]1O [vancomycin],predicted vancomycin therapeutic target achievement,[1],86.7%
same,typical Cl value,"[2]; VLBW neonate weighing 0.93 kg, PMA 26 weeks, Scr 0.6 mg/dl",0.09 L/h
same,TMA50 (PMA at which CL is 50% of the mature value),[2]; final model,26.3 weeks
same,"Cl (total body clearance), estimate","[2]; final population PK model, VLBW neonates, training data set N = 162",0.09 L/h
same,"V (volume of distribution), estimate","[2]; final population PK model, VLBW neonates, training data set N = 162, typical value at 0.93 kg",0.81 L
same,"probable vancomycin-related nephrotoxicity, neonates affected","[3]; VLBW neonates, ref Madigan et al. [41]",two out of 57
same,risk of nephrotoxicity,[3]; troughs >20 µg/ml,approximately 30%
same,risk of nephrotoxicity,[3]; troughs between 15 and 20 µg/ml,approximately 15%
same,"nephrotoxicity, patients","[3]; infants, ref Viel-Thériault et al. [42]",6%
same,subjects who developed nephrotoxicity,"[3]; neonatal intensive care unit, ref Bhargava et al. [39]",three out of 110
same,AUC0−24 cutoff as a predictor of nephrotoxicity,"[3]; neonates, ref Tang et al. [43]",> 485 µg·h/mL
same,neonates who developed nephrotoxicity,"[3]; neonates, ref Tang et al. [43]",seven out of 182

# — article PMC10101232, “Population pharmacokinetics of vancomycin in very low birth weight neonates” (Frontiers in Pediatrics, 2023)
